Measured values: patent US20240425523A1, “Compounds for the Degradation of EGFR Kinase” (Beigene Switzerland GMBH, priority 2023, published 2024)

Experiments:
Type in all cases: cell-based
[1] = target: T1, EGFR L858R (BaF3-L858R cells) (Homo sapiens, UniProt P00533, L858R); assay: Cell degradation of EGFR, HTRF assay, BaF3-L858R cells; conditions: 16 h treatment; for DC50: EGFR degradation; for Dmax: maximum percentage of degradation
T1 construct: host or cells: BaF3
Method in brief: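 EGFR L858R levels measured by HTRF antibody pair in lysed BaF3-L858R cells after 16 h compound exposure (8-point 5-fold series from 10 uM final, 37° C). Degradation is relative to DMSO-only cells; DC50 fitted with Hill equation, Dmax taken as the largest percent loss.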

[2] = target: T2, EGFR-L858R/C797S (H1975-clone #8 cells) (Homo sapiens, UniProt P00533, C797S/L858R); assay: Cell degradation of EGFR, HTRF assay, H1975-clone#8 (L858R/C797S) cells; conditions: 16 h treatment; for DC50: EGFR degradation; for Dmax: maximum percentage of degradation
T2 construct: expressed in transfected cells; host or cells: H1975 (endogenous EGFR knocked out, clone #8)

[3] = target: T3, p-EGFR L858R (BaF3-L858R cells) (Homo sapiens, UniProt P00533, L858R); assay: Cell p-EGFR inhibition assay, HTRF, BaF3-L858R cells; conditions: 16 h treatment; for Imax (%): maximum percentage of pEGFR inhibition; for IC50: pEGFR inhibition
T3 construct: host or cells: BaF3
Method in brief: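 BaF3-L858R cells treated 16 h at 37 °C, 5% CO2 with compound from 10 uM top, 5-fold dilutions, 8 doses, in 0.1% DMSO medium. Lysates read overnight by HTRF p-EGFR antibodies; IC50 fitted to four-parameter curve against DMSO high control.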

[4] = target: p-EGFR Del19/C797S (H1975-clone #23 cells) (Homo sapiens, UniProt P00533); assay: Cell p-EGFR inhibition assay, HTRF, H1975-clone#23 (DEL19/C797S) cells; conditions: 16 h treatment; for Imax (%): maximum percentage of pEGFR inhibition; for IC50: pEGFR inhibition
Method in brief: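 Phospho-EGFR read by overnight HTRF on lysates, normalized to DMSO-treated high control; IC50, Hill slope and Imax fitted. Compounds were applied for 16 h (10 uM top, 5-fold steps, 8 doses) to an H1975 single clone carrying only exogenous Del19/C797S EGFR after sgRNA knockout of endogenous copies.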

DC50 [1] [nM] | Dmax [1] [%] | DC50 [2] [nM] | Dmax [2] [%] | Imax (%) [3] [%] | IC50 [3] [nM] | Imax (%) [4] [%] | IC50 [4] [nM] | SMILES
0.59 | 85.8 | 0.76 | 91.5 | 95 | 1.5 | 100.5 | 0.6 | Cc1cc2cc(n1)-c1cnn(C)c1OC[C@H]1CCC(C1)CN1/C(=N/C2=O)Nc2cc(C)c(N3CCN([C@@H]4CCN(c5ccc(C6CCC(=O)NC6=O)nc5C)C[C@@H]4F)CC3)cc21 (stereo partly drawn) [Example 102, 3-(5-((3S,4R)-3-fluoro-4-(4-((7^1R,7^3S,E)-1^1,2^6,5^5-trimethyl-3-oxo-5^2,5^3-dihydro-1^1H,5^1H-9-oxa-4-aza-5(2,1)-benzo[d]imidazola-2(2,4)-pyridina-1(4,5)-pyrazola-7(1,3)-cyclopentanacyclononaphane-5^6-yl)piperazin-1-yl)piperidin-1-yl)-6-methylpyridin-2-yl)piperidine-2,6-dione]
2.94 | 89.3 | 0.73 | 88.7 | 90.84 | 0.528 | 99.88 | 0.769 | Cc1cc2cc(n1)-c1c(C)nn(C)c1OC[C@H]1CC[C@H](C1)CN1/C(=N/C2=O)Nc2ccc(N3C[C@H](C)N(C4CCN(c5cc(F)c([C@H]6CCC(=O)NC6=O)c(F)c5)CC4)C[C@H]3C)cc21 [Example 191, (R)-3-(4-(4-((2S,5R)-2,5-dimethyl-4-((7^1R,7^3S,E)-1^1,1^3,2^6-trimethyl-3-oxo-5^2,5^3-dihydro-1^1H,5^1H-9-oxa-4-aza-5(2,1)-benzo[d]imidazola-2(2,4)-pyridina-1(4,5)-pyrazola-7(1,3)-cyclopentanacyclononaphane-5^6-yl)piperazin-1-yl)piperidin-1-yl)-2,6-difluorophenyl)piperidine-2,6-dione]
3.4 | 89.5 | 5.5 | 85.7 | 91.3 | 10.9 | 99.2 | 9.5 | COC[C@@H]1CN(c2ccc3c(c2)N2CC4CC[C@H](COc5c(c(C(F)(F)F)nn5C)-c5cc(cc(C)n5)C(=O)/N=C/2N3)C4)CCN1C1CCN(c2cc(F)c([C@H]3CCC(=O)NC3=O)c(F)c2)CC1 [Example 77, (R)-3-(4-(4-((S)-4-((7^1R,7^3S,E)-1^1,2^6-dimethyl-3-oxo-1^3-(trifluoromethyl)-5^2,5^3-dihydro-1^1H,5^1H-9-oxa-4-aza-5(2,1)-benzo[d]imidazola-2(2,4)-pyridina-1(4,5)-pyrazola-7(1,3)-cyclopentanacyclononaphane-5^6-yl)-2-(methoxymethyl)piperazin-1-yl)piperidin-1-yl)-2,6-difluorophenyl)piperidine-2,6-dione]
2.74 | 70.3 | 3.22 | 66 | 97.1 | 17.2 | 100.2 | 3 | COC[C@@H]1CN(c2ccc3c(c2)N2CC4CC[C@H](COc5c(cnn5C)-c5cc(cc(C)n5)C(=O)/N=C/2N3)C4)CCN1CC1CN(c2cc(F)c([C@H]3CCC(=O)NC3=O)c(F)c2)C1 [Example 86, (R)-3-(4-(3-(((S)-4-((7^1R,7^3S,E)-1^1,2^6-dimethyl-3-oxo-5^2,5^3-dihydro-1^1H,5^1H-9-oxa-4-aza-5(2,1)-benzo[d]imidazola-2(2,4)-pyridina-1(4,5)-pyrazola-7(1,3)-cyclopentanacyclononaphane-5^6-yl)-2-(methoxymethyl)piperazin-1-yl)methyl)azetidin-1-yl)-2,6-difluorophenyl)piperidine-2,6-dione]
2.03 | 85.8 | 1.88 | 88 | 96.89 | 2.87 | 100.52 | 1.1 | COC[C@@H]1CN(c2ccc3c(c2)N2C[C@@H]4CC[C@H](COc5c(c(C)nn5CCO)-c5cc(cc(C)n5)C(=O)/N=C/2N3)C4)CCN1C1CCN(c2cc(F)c([C@H]3CCC(=O)NC3=O)c(F)c2)CC1 [Example 157, (R)-3-(2,6-difluoro-4-(4-((S)-4-((7^1R,7^3S,E)-1^1-(2-hydroxyethyl)-1^3,2^6-dimethyl-3-oxo-5^2,5^3-dihydro-1^1H,5^1H-9-oxa-4-aza-5(2,1)-benzo[d]imidazola-2(2,4)-pyridina-1(4,5)-pyrazola-7(1,3)-cyclopentanacyclononaphane-5^6-yl)-2-(methoxymethyl)piperazin-1-yl)piperidin-1-yl)phenyl)piperidine-2,6-dione]
0.31 | 74.1 | 0.8 | 89.2 | 91.9 | 3.1 | 101.1 | 1.1 | Cc1cc2cc(n1)-c1c(C)nn(C)c1OC[C@H]1CCC(C1)CN1/C(=N/C2=O)Nc2ccc(N3CCN([C@@H]4CCN(c5cc(F)c(C6CCC(=O)NC6=O)nc5C)C[C@@H]4F)CC3)cc21 (stereo partly drawn) [Example 82, 3-(3-fluoro-5-((3S,4R)-3-fluoro-4-(4-((7^1R,7^3S,E)-1^1,1^3,2^6-trimethyl-3-oxo-5^2,5^3-dihydro-1^1H,5^1H-9-oxa-4-aza-5(2,1)-benzo[d]imidazola-2(2,4)-pyridina-1(4,5)-pyrazola-7(1,3)-cyclopentanacyclononaphane-5^6-yl)piperazin-1-yl)piperidin-1-yl)-6-methylpyridin-2-yl)piperidine-2,6-dione]
2.6 | 80.6 | 2.49 | 75 | 110.3 | 4.7 | 101.3 | 1.4 | Cc1cc2cc(n1)-c1cnn(C)c1OC[C@H]1CCC(C1)CN1/C(=N/C2=O)Nc2ccc(N3CCN(C4CCN(c5ccc(NC6CCC(=O)NC6=O)nc5C)CC4)CC3)cc21 (some centres unmarked) [Example 98, 3-((5-(4-(4-((7^1R,7^3S,E)-1^1,2^6-dimethyl-3-oxo-5^2,5^3-dihydro-1^1H,5^1H-9-oxa-4-aza-5(2,1)-benzo[d]imidazola-2(2,4)-pyridina-1(4,5)-pyrazola-7(1,3)-cyclopentanacyclononaphane-5^6-yl)piperazin-1-yl)piperidin-1-yl)-6-methylpyridin-2-yl)amino)piperidine-2,6-dione]
4.4 | 88.1 | 2.97 | 82.5 | 94.53 | 2.24 | 96.05 | 0.6 | Cc1cc2cc(n1)-c1c(C)nn(C)c1OC[C@H]1CC[C@H](C1)CN1/C(=N/C2=O)Nc2ccc(N3CCN(C4CCN(c5cc(F)c([C@H]6CCC(=O)NC6=O)c(F)c5)CC4)[C@@H](CC#N)C3)cc21 [Example 163, 2-((S)-1-(1-(4-((R)-2,6-dioxopiperidin-3-yl)-3,5-difluorophenyl)piperidin-4-yl)-4-((7^1R,7^3S,E)-1^1,1^3,2^6-trimethyl-3-oxo-5^2,5^3-dihydro-1^1H,5^1H-9-oxa-4-aza-5(2,1)-benzo[d]imidazola-2(2,4)-pyridina-1(4,5)-pyrazola-7(1,3)-cyclopentanacyclononaphane-5^6-yl)piperazin-2-yl)acetonitrile]
2.79 | 92.7 | 1.19 | 88.7 | 94.91 | 1.85 | 96.95 | 0.254 | Cc1cc2cc(n1)-c1c(C)nn(C)c1OC[C@H]1CC[C@H](C1)CN1/C(=N/C2=O)Nc2ccc(N3CCN(C4CCN(c5cc(F)c([C@H]6CCC(=O)NC6=O)c(F)c5)CC4)C(=O)C3)cc21 [Example 164, (R)-3-(2,6-difluoro-4-(4-(2-oxo-4-((7^1R,7^3S,E)-1^1,1^3,2^6-trimethyl-3-oxo-5^2,5^3-dihydro-1^1H,5^1H-9-oxa-4-aza-5(2,1)-benzo[d]imidazola-2(2,4)-pyridina-1(4,5)-pyrazola-7(1,3)-cyclopentanacyclononaphane-5^6-yl)piperazin-1-yl)piperidin-1-yl)phenyl)piperidine-2,6-dione]
0.49 | 91.8 | 0.6 | 58 | 91.6 | 1.3 | 101.1 | 0.5 | Cc1cc2cc(n1)-c1cnn(C)c1OC[C@H]1CC[C@H](C1)CN1/C(=N/C2=O)Nc2ccc(N3CCN(CC4CN(c5ccc6c(c5)CN(C5CCC(=O)NC5=O)C6=O)C4)CC3)cc21 (some centres unmarked) [Example 35, 3-(5-(3-((4-((7^1R,7^3S,E)-1^1,2^6-dimethyl-3-oxo-5^2,5^3-dihydro-1^1H,5^1H-9-oxa-4-aza-5(2,1)-benzo[d]imidazola-2(2,4)-pyridina-1(4,5)-pyrazola-7(1,3)-cyclopentanacyclononaphane-5^6-yl)piperazin-1-yl)methyl)azetidin-1-yl)-1-oxoisoindolin-2-yl)piperidine-2,6-dione]
